US20250042895A1, “INHIBITORS OF ULK1 AND METHODS OF USE” (H. LEE MOFFITT CANCER CENTER AND RESEARCH INSTITUTE, INC., priority 2021, published 2025)

Columns and labels:
ULK1 kinase = molecular target: T1, ULK1 kinase (Homo sapiens, UniProt O75385); test: Radiometric HotSpot kinase assay (Reaction Biology); type: biochemical; conditions: activity-based ULK1 kinase assay
T1 construct: purchased Reaction Biology
T1 sequence (O75385 1-1050): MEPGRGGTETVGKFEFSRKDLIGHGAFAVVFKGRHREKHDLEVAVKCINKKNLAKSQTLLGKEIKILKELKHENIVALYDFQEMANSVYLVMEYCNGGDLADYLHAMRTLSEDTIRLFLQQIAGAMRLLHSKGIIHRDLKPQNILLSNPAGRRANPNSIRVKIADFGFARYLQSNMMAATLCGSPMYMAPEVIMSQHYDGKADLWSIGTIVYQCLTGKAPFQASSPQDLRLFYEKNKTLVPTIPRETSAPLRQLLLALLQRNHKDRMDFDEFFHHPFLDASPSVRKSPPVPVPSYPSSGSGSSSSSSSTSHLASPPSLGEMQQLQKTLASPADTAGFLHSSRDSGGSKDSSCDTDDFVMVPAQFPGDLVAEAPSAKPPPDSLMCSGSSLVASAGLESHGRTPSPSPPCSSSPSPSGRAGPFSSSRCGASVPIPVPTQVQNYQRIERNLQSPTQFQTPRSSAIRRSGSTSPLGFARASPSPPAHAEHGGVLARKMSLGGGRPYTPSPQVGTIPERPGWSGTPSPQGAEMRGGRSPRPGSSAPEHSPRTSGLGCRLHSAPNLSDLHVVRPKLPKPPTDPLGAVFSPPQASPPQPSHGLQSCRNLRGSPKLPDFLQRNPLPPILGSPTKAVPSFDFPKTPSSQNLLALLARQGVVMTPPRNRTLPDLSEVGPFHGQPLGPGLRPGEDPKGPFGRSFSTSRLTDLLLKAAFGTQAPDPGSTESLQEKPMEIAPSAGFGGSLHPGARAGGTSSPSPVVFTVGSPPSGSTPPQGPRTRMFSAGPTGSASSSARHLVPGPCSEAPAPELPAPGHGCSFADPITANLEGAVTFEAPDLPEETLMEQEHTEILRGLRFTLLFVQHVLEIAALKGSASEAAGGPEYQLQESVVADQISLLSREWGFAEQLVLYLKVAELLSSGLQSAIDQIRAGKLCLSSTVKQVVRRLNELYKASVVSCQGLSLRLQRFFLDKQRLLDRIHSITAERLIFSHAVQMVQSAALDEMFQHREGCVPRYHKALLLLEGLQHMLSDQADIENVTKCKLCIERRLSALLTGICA

ULK1 kinase domain = molecular target: T2, ULK1 kinase domain (Homo sapiens, UniProt O75385); test: Differential scanning fluorimetry (thermal shift); type: binding; conditions: 2 μM ULK1 kinase domain, 50 μM compound, vs DMSO reference
T2 construct: The protein expression construct of ULK1 kinase domain (1-283) was cloned; 6His-Sumo (N, cleaved yes); made in house; host or cells: E. coli BL21 star, co-expressed with lambda phosphatase
T2 sequence (O75385 1-283): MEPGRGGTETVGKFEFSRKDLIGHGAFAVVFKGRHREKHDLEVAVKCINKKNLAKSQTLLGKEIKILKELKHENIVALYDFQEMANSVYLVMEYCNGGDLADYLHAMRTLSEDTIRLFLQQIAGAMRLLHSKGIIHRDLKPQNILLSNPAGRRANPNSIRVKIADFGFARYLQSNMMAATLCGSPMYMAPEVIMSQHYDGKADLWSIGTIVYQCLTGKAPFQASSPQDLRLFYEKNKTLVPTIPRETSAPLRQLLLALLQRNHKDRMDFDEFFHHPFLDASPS

GST-ULK1 = molecular target: T3, GST-ULK1 (Homo sapiens, UniProt O75385); test: LanthaScreen ULK1 inhibitor assay; type: biochemical; conditions: 5 nM GST-ULK1, 30 nM tracer, 20 μM ATP, 1 hr room temperature
T3 sequence (O75385 1-1050): T1 sequence (O75385 1-1050)

ULK1-nanoluc = molecular target: T4, ULK1-nanoluc (Homo sapiens, UniProt O75385); test: NanoBRET target engagement in live cells; type: cell-based; conditions: H2030 cells transfected with ULK1-nanoluc, Tracer K10, 2 hr
T4 construct: host or cells: H2030 cells (ATCC)
T4 sequence (O75385 1-1050): T1 sequence (O75385 1-1050)

EC50 (ULK1-nanoluc)	SMILES	IC50 (ULK1 kinase)	ΔTm at 50 µM (ULK1 kinase domain)	IC50 (GST-ULK1)
	O=C(NC(CO)CO)c1cccc(-c2cnc3[nH]c(-c4ccc(F)cc4)cc3c2)n1 [Compound 55, N-(1,3-Dihydroxypropan-2-yl)-6-(2-(4-fluorophenyl)-1H-pyrrolo[2,3-b]pyridin-5-yl)picolinamide]	44 nM	8.56 °C	74 nM
	CC[C@H](CO)NC(=O)c1cccc(-c2cnc3[nH]c(-c4ccc(F)cc4)cc3c2)n1 [Compound 56, (R)-6-(2-(4-Fluorophenyl)-1H-pyrrolo[2,3-b]pyridin-5-yl)-N-(1-hydroxybutan-2-yl)-picolinamide]	72 nM	6.85 °C	80 nM
	O=C(NCC(O)C(F)(F)F)c1cccc(-c2cnc3[nH]c(-c4ccc(F)cc4)cc3c2)n1 (centres unmarked) [Compound 57, 6-(2-(4-Fluorophenyl)-1H-pyrrolo[2,3-b]pyridin-5-yl)-N-(3,3,3-trifluoro-2-hydroxy-propyl)picolinamide]	49 nM	8.73 °C	20 nM
	CC[C@H](CO)NC(=O)c1nc(-c2cnc3[nH]c(-c4ccc(F)cc4)cc3c2)cs1 [Compound 62, (R)-4-(2-(4-Fluorophenyl)-1H-pyrrolo[2,3-b]pyridin-5-yl)-N-(1-hydroxybutan-2-yl)-thiazole-2-carboxamide]	78 nM	4.81 °C	182 nM
	O=C(NC(CO)CO)c1nc(-c2cnc3[nH]c(-c4ccc(F)cc4)cc3c2)cs1 [Compound 63, N-(1,3-Dihydroxypropan-2-yl)-4-(2-(4-fluorophenyl)-1H-pyrrolo[2,3-b]pyridin-5-yl)-thiazole-2-carboxamide]	55 nM	6.46 °C	103 nM
	O=C(NCC1(O)CCCC1)c1nc(-c2cnc3[nH]c(-c4ccc(F)cc4)cc3c2)cs1 [Compound 72, 4-(2-(4-fluorophenyl)-1H-pyrrolo-[2,3-b]pyridin-5-yl)-N-((1-hydroxy-cyclopentyl)methyl)thiazole-2-carboxamide]	50 nM	7.96 °C	36 nM
	O=C(c1nc(-c2cnc3[nH]c(-c4ccc(F)cc4)cc3c2)cs1)N1CC(F)C1 [Compound 74, (3-fluoroazetidin-1-yl)(4-(2-(4-fluorophenyl)-1H-pyrrolo[2,3-b]-pyridin-5-yl)thiazol-2-yl)methanone]	644 nM	1.87 °C	665 nM
	C[C@H](CO)NC(=O)c1nc(-c2cnc3[nH]c(-c4ccc(F)cc4)cc3c2)cs1 [Compound 77, (R)-4-(2-(4-fluorophenyl)-1H-pyrrolo[2,3-b]pyridin-5-yl)-N-(1-hydroxypropan-2-yl)thiazole-2-carboxamide]	348 nM	4.54 °C	741 nM
	O=C(NC1CNC1)c1nc(-c2cnc3[nH]c(-c4ccc(F)cc4)cc3c2)cs1 [Compound 80, N-(azetidin-3-yl)-4-(2-(4-fluoro-phenyl)-1H-pyrrolo[2,3-b]pyridin-5-yl)thiazole-2-carboxamide]	502 nM	4.99 °C	966 nM
	Fc1ccc(-c2cc3c(NCC(F)(F)F)c(C(F)(F)F)cnc3[nH]2)cc1 [Compound 81, 2-(4-fluorophenyl)-N-(2,2,2-trifluoroethyl)-5-(trifluoromethyl)-1H-pyrrolo[2,3-b]pyridin-4-amine]	15 nM	5.41 °C	14 nM
	Fc1ccc(-c2cc3c(NC4CCC4)c(C(F)(F)F)cnc3[nH]2)cc1 [Compound 82, N-cyclobutyl-2-(4-fluorophenyl)-5-(trifluoro-methyl)-1H-pyrrolo[2,3-b]pyridin-4-amine]	9 nM	4.39 °C	24 nM
	FC(F)(F)c1cnc2[nH]c(C3CCOCC3)cc2c1NC1CCNC1 (centres unmarked) [Compound 83, N-(pyrrolidin-3-yl)-2-(tetrahydro-2H-pyran-4-yl)-5-(trifluoromethyl)-1H-pyrrolo[2,3-b]-pyridin-4-amine]	401 nM	6.81 °C	208 nM
	FC(F)(F)c1cnc2[nH]c(C3=CCOCC3)cc2c1NC1CCNC1 (centres unmarked) [Compound 84, 2-(3,6-dihydro-2H-pyran-4-yl)-N-(pyrrolidin-3-yl)-5-(trifluoromethyl)-1H-pyrrolo[2,3-b]pyridin-4-amine]	549 nM	7.13 °C	412 nM
	FC1(F)CN(c2c(C(F)(F)F)cnc3[nH]c(C4=CCOCC4)cc23)C1 [Compound 86, 4-(3,3-Difluoroazetidin-1-yl)-2-(3,6-dihydro-2H-pyran-4-yl)-5-(trifluoromethyl)-1H-pyrrolo[2,3-b]pyridine]	56 nM	6.82 °C	172 nM
	FC(F)(F)c1cnc2[nH]c(C3CCOCC3)cc2c1NCCN1CCOCC1 [Compound 88, N-(2-morpholinoethyl)-2-(tetrahydro-2H-pyran-4-yl)-5-(trifluoromethyl)-1H-pyrrolo-[2,3-b]pyridin-4-amine]	4450 nM	2.37 °C	4520 nM
	FC(F)(F)c1cnc2[nH]c(C3CCOCC3)cc2c1NCCCN1CCCC1 [Compound 90, N-(3-(pyrrolidin-1-yl)propyl)-2-(tetrahydro-2H-pyran-4-yl)-5-(trifluoromethyl)-1H-pyrrolo[2,3-b]pyridin-4-amine]	155 nM	9.23 °C	145 nM
	FC(F)(F)c1cnc2[nH]c(C3=CCOCC3)cc2c1NCCCN1CCCC1 [Compound 91, 2-(3,6-dihydro-2H-pyran-4-yl)-N-(3-(pyrrolidin-1-yl)propyl)-5-(trifluoromethyl)-1H-pyrrolo[2,3-b]pyridin-4-amine]	110 nM	9.77 °C	167 nM
	FC1(F)CCN(c2c(C(F)(F)F)cnc3[nH]c(C4=CCOCC4)cc23)CC1 [Compound 93, 4-(4,4-Difluoropiperidin-1-yl)-2-(3,6-dihydro-2H-pyran-4-yl)-5-(trifluoromethyl)-1H-pyrrolo[2,3-b]pyridine]	7070 nM	2.03 °C	8280 nM
	CN1CCC(c2cc3c(NCCN4CCOCC4)c(C(F)(F)F)cnc3[nH]2)CC1 [Compound 95, 2-(1-methylpiperidin-4-yl)-N-(2-morpholinoethyl)-5-(trifluoromethyl)-1H-pyrrolo[2,3-b]pyridin-4-amine]	758 nM	0.49 °C	917 nM
	CN1CC=C(c2cc3c(NCCCN4CCCC4)c(C(F)(F)F)cnc3[nH]2)CC1 [Compound 97, 2-(1-methyl-1,2,3,6-tetrahydropyridin-4-yl)-N-(3-(pyrrolidin-1-yl)propyl)-5-(trifluoro-methyl)-1H-pyrrolo[2,3-b]pyridin-4-amine]	2380 nM	7.07 °C	541 nM
	CN1CC=C(c2cc3c(NCCN4CCOCC4)c(C(F)(F)F)cnc3[nH]2)CC1 [Compound 99, 2-(1-methyl-1,2,3,6-tetrahydropyridin-4-yl)-N-(2-morpholinoethyl)-5-(trifluoromethyl)-1H-pyrrolo[2,3-b]pyridin-4-amine]	625 nM	7.77 °C	374 nM
	CN1CC=C(c2cc3c(N4CC(F)(F)C4)c(C(F)(F)F)cnc3[nH]2)CC1 [Compound 100, 4-(3,3-difluoroazetidin-1-yl)-2-(1-methyl-1,2,3,6-tetrahydropyridin-4-yl)-5-(trifluoromethyl)-1H-pyrrolo[2,3-b]pyridine]	171 nM	4.99 °C	218 nM
952 nM	C[C@@H](CO)NC(=O)c1cc(-c2cnc3[nH]c(C4=CCCNC4)cc3c2)cs1 [Compound 102]			15 nM
